The record followed here is US7582611B2, “Motilide compounds” (Pfizer Inc., priority 2005, dated 2009).

One assay concerns the target T1, Motilin Receptor (Oryctolagus cuniculus, UniProt G1T803).
T1 construct: strips of longitudinal smooth muscle were sliced from the segments; from tissue; host or cells: rabbit duodenum longitudinal smooth muscle strips
The experiment in a line: Tissue based assay for motilin agonist potency (rabbit duodenum contractility). It is filed as cell-based. Conditions: rabbit duodenum strips, contraction normalized to 1 μM carbachol; read-out: Motilin Receptor Agonist Activity (EC50). The procedure:
The motilin agonist potencies of compounds of this invention were evaluated using a tissue based assay, using rabbit duodenum tissue-based contractility assay, generally following the procedure of Depoortere et al., J. Gastrointestinal Motility, 1, 150-159 (1989), the disclosure of which is incorporated herein by reference. Briefly, this method measures the ability of a compound to induce contractions in rabbit duodenal tissue, a motilin receptor-bearing tissue contractilely responsive to motilin.
Strips of rabbit duodenum were tested and qualified for use in the assay by as follows. Segments of rabbit duodenum, 20-30 cm distal to the pylorus were split longitudinally. The mucosa was removed and 2×2×15 mm strips of longitudinal smooth muscle were sliced from the segments. The strips were bathed in oxygenated Krebs solution at 37° C., with 1.5 g of tension, and contractions measured auxotonically.
The carbachol was then washed away by changing the organ bath buffer twice. The strips were washed again 20±5 minutes following the carbachol contraction. Following this last wash a dose response study was initiated within 10±5 min. Each compound tested was dissolved in dimethylsulfoxide (DMSO) to a final concentration of 10 mM. A series of seven 10× serial dilutions in water was prepared, so that the concentration of the seventh serial dilution was 1.0×10^−6 mM. The first through fifth serial dilutions of the compound were applied, starting with 200 μL of the most dilute solution. After each application, there was a wait of 2±0.5 min, until the response was stable, before the application of the next dose (the next higher concentration serial dilution). The dose was increased in 10-fold increments until a small response was observed. Subsequent doses were the increased in 2- to 5-fold increments, until the maximum response was obtained. At 2±0.5 min after the last drug addition, the strips were dosed with 1 μM carbachol.
The EC50 (concentration producing a half-maximal effect) was calculated as follows. The basal tension was subtracted from the compound-induced tension for each reading. The data points were normalized against the response obtained from 1 μM carbachol at the end of the experiment. The concentration of compound was plotted against the response and fitted to the following equation: R=(Rmax·C)/(EC50+C) where R is the contraction response, Rmax is the maximal contraction response, and C is the concentration of compound. Both R and Rmax are expressed as a fraction of the 1 μM carbachol contraction and range from 0 to 1.

The subject of assay [1] is Streptococcus pneumoniae ATCC 6301. The experiment in a line: Evaluation of antibacterial activity (MIC, serial dilutions on 96-well microtiter plates). It is filed as cell-based. The note with it: ATCC6301, read-out: Antibacterial Activity (MIC, μg/mL).

Values after ≈ are worked out from the molar mass of the structure shown. Some results are limits rather than exact numbers.

T1 sequence (G1T803 1-400): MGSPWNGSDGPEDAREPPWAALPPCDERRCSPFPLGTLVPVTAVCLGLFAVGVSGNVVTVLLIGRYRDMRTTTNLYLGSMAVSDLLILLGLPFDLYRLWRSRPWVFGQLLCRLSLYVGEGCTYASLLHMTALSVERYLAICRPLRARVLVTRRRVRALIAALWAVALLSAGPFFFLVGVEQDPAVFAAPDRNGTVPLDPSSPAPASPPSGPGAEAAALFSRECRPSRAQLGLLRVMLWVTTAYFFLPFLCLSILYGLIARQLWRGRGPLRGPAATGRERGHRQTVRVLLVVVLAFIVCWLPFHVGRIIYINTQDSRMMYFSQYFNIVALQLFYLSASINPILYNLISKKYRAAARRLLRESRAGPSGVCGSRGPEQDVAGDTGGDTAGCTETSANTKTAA

As for `CC[C@H]1OC(=O)[C@H](C)[C@@H](O[C@H]2C[C@@](C)(OC)[C@@H](O)[C@H](C)O2)[C@H](C)[C@@H](O[C@@H]2O[C@H](C)C[C@H](N(C)C(C)C)[C@H]2O)[C@](C)(O)C[C@@H](C)[C@H](OS(=O)(=O)N(C)C)[C@H](C)[C@@H](O)[C@]1(C)O` [Compound A-19], the EC50 at Motilin Receptor worked out at 91 nM. Also, the MIC in assay [1] came out at 128 µg/mL (≈ 147 µM).

For the molecule `CC[C@H]1OC(=O)[C@H](C)[C@@H](O[C@H]2C[C@@](C)(OC)[C@@H](O)[C@H](C)O2)[C@H](C)[C@@H](O[C@@H]2O[C@H](C)C[C@H](N(C)C[C@H](C)O)[C@H]2O)[C@](C)(O)C[C@@H](C)[C@H](OS(=O)(=O)N(C)C)[C@H](C)[C@@H](O)[C@]1(C)O` [Compound A-20], at Motilin Receptor, the EC50 is 490 nM. Also, in assay [1], the MIC was determined as 128 µg/mL (≈ 144 µM).

Turning to `CC[C@H]1OC(=O)[C@H](C)[C@@H](O[C@H]2C[C@@](C)(OC)[C@@H](O)[C@H](C)O2)[C@H](C)[C@@H](O[C@@H]2O[C@H](C)C[C@H](N(C)C(C)C)[C@H]2O)[C@](C)(O)C[C@@H](C)[C@H](OCC(=O)NC)[C@H](C)[C@@H](O)[C@]1(C)O` [Compound A-21], at Motilin Receptor, the EC50 is 58 nM. In addition, in assay [1], the MIC turned out to be 64 µg/mL (≈ 76.6 µM).

Take `CC[C@H]1OC(=O)[C@H](C)[C@@H](O[C@H]2C[C@@](C)(OC)[C@@H](O)[C@H](C)O2)[C@H](C)[C@@H](O[C@@H]2O[C@H](C)C[C@H](N(C)C(C)C)[C@H]2O)[C@](C)(O)C[C@@H](C)[C@H](OCC(=O)OC)[C@H](C)[C@@H](O)[C@]1(C)O` [Compound A-22]: the EC50 on Motilin Receptor is 140 nM. For the same molecule, the MIC in assay [1] came to 128 µg/mL (≈ 153 µM).

On to `CC[C@H]1OC(=O)[C@H](C)[C@@H](O[C@H]2C[C@@](C)(OC)[C@@H](O)[C@H](C)O2)[C@H](C)[C@@H](O[C@@H]2O[C@H](C)C[C@H](N(C)C3CCC3)[C@H]2O)[C@](C)(O)C[C@@H](C)[C@H](OCC(=O)OC)[C@H](C)[C@@H](O)[C@]1(C)O` [Compound A-23], for which the EC50 on Motilin Receptor stood at 560 nM. In addition, the MIC in assay [1] is over 128 µg/mL.

In the case of `CC[C@H]1OC(=O)[C@H](C)[C@@H](O[C@H]2C[C@@](C)(OC)[C@@H](O)[C@H](C)O2)[C@H](C)[C@@H](O[C@@H]2O[C@H](C)C[C@H](N(C)C3CCC3)[C@H]2O)[C@](C)(O)C[C@@H](C)[C@H](OC(C)=O)[C@H](C)[C@@H](O)[C@]1(C)O` [Compound A-24], the EC50 on Motilin Receptor is 860 nM. Besides, the MIC in assay [1] is over 128 µg/mL.

Regarding `CCC(=O)O[C@@H]1[C@H](C)[C@@H](O)[C@](C)(O)[C@@H](CC)OC(=O)[C@H](C)[C@@H](O[C@H]2C[C@@](C)(OC)[C@@H](O)[C@H](C)O2)[C@H](C)[C@@H](O[C@@H]2O[C@H](C)C[C@H](N(C)C3CCC3)[C@H]2O)[C@](C)(O)C[C@H]1C` [Compound A-25], the EC50 on Motilin Receptor stood at 1200 nM. The MIC in assay [1] is over 128 µg/mL.

Consider `CC[C@H]1OC(=O)[C@H](C)[C@@H](O[C@H]2C[C@@](C)(OC)[C@@H](O)[C@H](C)O2)[C@H](C)[C@@H](O[C@@H]2O[C@H](C)C[C@H](N(C)C(C)C)[C@H]2O)[C@](C)(O)C[C@@H](C)[C@H](OCc2csc(C)n2)[C@H](C)[C@@H](O)[C@]1(C)O` [Compound A-26], for which the EC50 on Motilin Receptor is 480 nM. Besides, the MIC in assay [1] was found to be 128 µg/mL (≈ 146 µM).

For `CC[C@H]1OC(=O)[C@H](C)[C@@H](O[C@H]2C[C@@](C)(OC)[C@@H](O)[C@H](C)O2)[C@H](C)[C@@H](O[C@@H]2O[C@H](C)C[C@H](N(C)C(C)C)[C@H]2O)[C@](C)(O)C[C@@H](C)[C@H](OCc2cc(C)on2)[C@H](C)[C@@H](O)[C@]1(C)O` [Compound A-27], at Motilin Receptor, the EC50 amounted to 110 nM. Moreover, the MIC in assay [1] was 128 µg/mL (≈ 149 µM).

As to `CC[C@H]1OC(=O)[C@H](C)[C@@H](O[C@H]2C[C@@](C)(OC)[C@@H](O)[C@H](C)O2)[C@H](C)[C@@H](O[C@@H]2O[C@H](C)C[C@H](N(C)C(C)C)[C@H]2O)[C@](C)(O)C[C@@H](C)[C@H](OCc2ccncc2)[C@H](C)[C@@H](O)[C@]1(C)O` [Compound A-28], at Motilin Receptor, the EC50 is over 420 nM. In addition, in assay [1], the MIC turned out to be 128 µg/mL (≈ 150 µM).

Turning to `CC[C@H]1OC(=O)[C@H](C)[C@@H](O[C@H]2C[C@@](C)(OC)[C@@H](O)[C@H](C)O2)[C@H](C)[C@@H](O[C@@H]2O[C@H](C)C[C@H](N(C)C(C)C)[C@H]2O)[C@](C)(O)C[C@@H](C)[C@H](OCc2nccs2)[C@H](C)[C@@H](O)[C@]1(C)O` [Compound A-29], the EC50 at Motilin Receptor amounted to 290 nM. The MIC in assay [1] was 128 µg/mL (≈ 149 µM).

Regarding `CC[C@H]1OC(=O)[C@H](C)[C@@H](O[C@H]2C[C@@](C)(OC)[C@@H](O)[C@H](C)O2)[C@H](C)[C@@H](O[C@@H]2O[C@H](C)C[C@H](N(C)C(C)C)[C@H]2O)[C@](C)(O)C[C@@H](C)[C@H](OCCNC(C)=O)[C@H](C)[C@@H](O)[C@]1(C)O` [Compound A-30], the EC50 at Motilin Receptor turned out to be 48 nM. Moreover, in assay [1], the MIC was over 128 µg/mL.

Regarding `CCNC(=O)CO[C@@H]1[C@H](C)[C@@H](O)[C@](C)(O)[C@@H](CC)OC(=O)[C@H](C)[C@@H](O[C@H]2C[C@@](C)(OC)[C@@H](O)[C@H](C)O2)[C@H](C)[C@@H](O[C@@H]2O[C@H](C)C[C@H](N(C)C(C)C)[C@H]2O)[C@](C)(O)C[C@H]1C` [Compound A-31], the EC50 on Motilin Receptor came out at 67 nM. Also, the MIC in assay [1] is over 128 µg/mL.

As to `CC[C@H]1OC(=O)[C@H](C)[C@@H](O[C@H]2C[C@@](C)(OC)[C@@H](O)[C@H](C)O2)[C@H](C)[C@@H](O[C@@H]2O[C@H](C)C[C@H](N(C)C(C)C)[C@H]2O)[C@](C)(O)C[C@@H](C)[C@H](OCCNS(C)(=O)=O)[C@H](C)[C@@H](O)[C@]1(C)O` [Compound A-32], the EC50 at Motilin Receptor was 240 nM. The MIC in assay [1] was over 128 µg/mL.

Consider `CC[C@H]1OC(=O)[C@H](C)[C@@H](O[C@H]2C[C@@](C)(OC)[C@@H](O)[C@H](C)O2)[C@H](C)[C@@H](O[C@@H]2O[C@H](C)C[C@H](N(C)C(C)C)[C@H]2O)[C@](C)(O)C[C@@H](C)[C@H](OCC(=O)NC2CCOCC2)[C@H](C)[C@@H](O)[C@]1(C)O` [Compound A-33], for which the 50% effective concentration (EC50) on Motilin Receptor is 120 nM. Moreover, the MIC in assay [1] was over 128 µg/mL.

For the molecule `CC[C@H]1OC(=O)[C@H](C)[C@@H](O[C@H]2C[C@@](C)(OC)[C@@H](O)[C@H](C)O2)[C@H](C)[C@@H](O[C@@H]2O[C@H](C)C[C@H](N(C)C(C)C)[C@H]2O)[C@](C)(O)C[C@@H](C)[C@H](OCC(=O)NCCO)[C@H](C)[C@@H](O)[C@]1(C)O` [Compound A-34], on Motilin Receptor, the EC50 was determined as 120 nM. In addition, the MIC in assay [1] was determined as 128 µg/mL (≈ 148 µM).

Take `CC[C@H]1OC(=O)[C@H](C)[C@@H](O[C@H]2C[C@@](C)(OC)[C@@H](O)[C@H](C)O2)[C@H](C)[C@@H](O[C@@H]2O[C@H](C)C[C@H](N(C)C(C)C)[C@H]2O)[C@](C)(O)C[C@@H](C)[C@H](NS(C)(=O)=O)[C@H](C)[C@@H](O)[C@]1(C)O` [Compound A-35]: at Motilin Receptor, the EC50 was determined as 190 nM. In assay [1], the MIC turned out to be 64 µg/mL (≈ 76.1 µM).

Regarding `CC[C@H]1OC(=O)[C@H](C)[C@@H](O[C@H]2C[C@@](C)(OC)[C@@H](O)[C@H](C)O2)[C@H](C)[C@@H](O[C@@H]2O[C@H](C)C[C@H](N(C)CCO)[C@H]2O)[C@](C)(O)C[C@@H](C)[C@H](NS(C)(=O)=O)[C@H](C)[C@@H](O)[C@]1(C)O` [Compound A-36], the EC50 on Motilin Receptor was 66 nM. For the same molecule, in assay [1], the MIC is 32 µg/mL (≈ 38 µM).

Regarding `CC[C@H]1OC(=O)[C@H](C)[C@@H](O[C@H]2C[C@@](C)(OC)[C@@H](O)[C@H](C)O2)[C@H](C)[C@@H](O[C@@H]2O[C@H](C)C[C@H](N(C)CC(C)(C)O)[C@H]2O)[C@](C)(O)C[C@@H](C)[C@H](NS(C)(=O)=O)[C@H](C)[C@@H](O)[C@]1(C)O` [Compound A-37], the EC50 at Motilin Receptor was 52 nM. Moreover, the MIC in assay [1] turned out to be 64 µg/mL (≈ 73.5 µM).

With `CC[C@H]1OC(=O)[C@H](C)[C@@H](O[C@H]2C[C@@](C)(OC)[C@@H](O)[C@H](C)O2)[C@H](C)[C@@H](O[C@@H]2O[C@H](C)C[C@H](N(C)CC(C)C)[C@H]2O)[C@](C)(O)C[C@@H](C)[C@H](NS(C)(=O)=O)[C@H](C)[C@@H](O)[C@]1(C)O` [Compound A-38], at Motilin Receptor, the EC50 was 140 nM. Besides, in assay [1], the MIC was found to be 128 µg/mL (≈ 150 µM).

Regarding `CC[C@H]1OC(=O)[C@H](C)[C@@H](O[C@H]2C[C@@](C)(OC)[C@@H](O)[C@H](C)O2)[C@H](C)[C@@H](O[C@@H]2O[C@H](C)C[C@H](N(C)C3CCC3)[C@H]2O)[C@](C)(O)C[C@@H](C)[C@H](NS(C)(=O)=O)[C@H](C)[C@@H](O)[C@]1(C)O` [Compound A-39], the EC50 at Motilin Receptor is 280 nM. Also, in assay [1], the MIC was over 128 µg/mL.

On to `CC[C@H]1OC(=O)[C@H](C)[C@@H](O[C@H]2C[C@@](C)(OC)[C@@H](O)[C@H](C)O2)[C@H](C)[C@@H](O[C@@H]2O[C@H](C)C[C@H](N(C)C(C)C)[C@H]2O)[C@](C)(O)C[C@@H](C)[C@H](NS(=O)(=O)CC)[C@H](C)[C@@H](O)[C@]1(C)O` [Compound A-40], for which the concentration for a half-maximal effect (EC50) at Motilin Receptor stood at 350 nM. For the same molecule, in assay [1], the MIC was 128 µg/mL (≈ 150 µM).
